Measurements reported in patent publication US20230365542A1, “Selective Agonists of 5-HT2A Receptor and Methods of Use” (Yale University, priority 2020, published 2023).
Like-named read-outs stand apart in the source and are kept apart here.

Columns and labels:
5-HT2BR [1] = target: T1, 5-HT2BR (Homo sapiens, UniProt P41595); experiment: Calcium flux assay (FLIPR, Fluo-4), 5-HT2BR stable cell line; type: cell-based; details: for 5-HT2BR Rmax ± S.E.M: value in parentheses
T1 construct: expressed in transfected cells; host or cells: Flp-In 293 T-Rex (tetracycline inducible)
Method: Stable cell lines for 5-HT2AR, 5-HT2BR and 5-HT2CR generated using the Flp-In 293 T-Rex Tetracycline inducible system (Invitrogen). Tetracycline-induced cells were seeded in 384-well poly-L-lysine plates at a density of 10,000 cells/well in DMEM containing 1% dialyzed FBS at least 16-24 hr before the calcium flux assay. On the day of the assay, the cells were incubated (20 ul/well) for 1 hr at 37° C. with Fluo-4 Direct dye (Invitrogen) reconstituted in FLIPR buffer (1×HBSS, 2.5 mM probenecid, and 20 mM HEPES, pH 7.4). After dye loading, cells were placed in a FLIPR^TETRA fluorescence imaging plate reader ([…]). Drug dilutions were prepared at 3× final concentration in drug buffer (1×HBSS, 20 mM HEPES, 0.1% BSA, 0.01% ascorbic acid, pH 7.4) and aliquoted into 384-well plates and placed in the FLIPR^TETRA for drug stimulation. The fluidics module and plate reader of the FLIPR^TETRA were programmed to read baseline fluorescence for 10s (1 read/s), then 10 ul of drug/well was added and read for 5 min (1 read/s). Fluorescence in each well was normalized to the average of the first 10 reads (i.e., baseline fluorescence). Then, the maximum-fold increase, which occurred within the first 60 s after drug addition, was determined and fold over baseline was plotted as a function of drug concentration. Data were normalized to % 5-HT stimulation and analyzed using “log(agonist) vs. response” in GraphPad Prism 9.0.

5-HT2BR [2] = target: T1, 5-HT2BR; experiment: 5-HT2BR binding affinity (Ki), Table 8
5-HT2AR [3] = target: T2, 5-HT2AR (Homo sapiens, UniProt P28223); experiment: 5-HT2AR binding affinity (Ki), Table 8
T2 construct: expressed in transfected cells; host or cells: Flp-In 293 T-Rex (tetracycline inducible)

5-HT2AR [4] = target: T2, 5-HT2AR; experiment: Calcium flux assay (FLIPR, Fluo-4), 5-HT2AR stable cell line; type: cell-based; details: for 5-HT2AR Rmax ± S.E.M: value in parentheses
Method: Stable cell lines for 5-HT2AR, 5-HT2BR and 5-HT2CR generated using the Flp-In 293 T-Rex Tetracycline inducible system (Invitrogen). Tetracycline-induced cells were seeded in 384-well poly-L-lysine plates at a density of 10,000 cells/well in DMEM containing 1% dialyzed FBS at least 16-24 hr before the calcium flux assay. On the day of the assay, the cells were incubated (20 ul/well) for 1 hr at 37° C. with Fluo-4 Direct dye (Invitrogen) reconstituted in FLIPR buffer (1×HBSS, 2.5 mM probenecid, and 20 mM HEPES, pH 7.4). After dye loading, cells were placed in a FLIPR^TETRA fluorescence imaging plate reader (Molecular Dynamics). Drug dilutions were prepared at 3× final concentration in drug buffer (1×HBSS, 20 mM HEPES, 0.1% BSA, 0.01% ascorbic acid, pH 7.4) and aliquoted into 384-well plates and placed in the FLIPR^TETRA for drug stimulation. The fluidics module and plate reader of the FLIPR^TETRA were programmed to read baseline fluorescence for 10s (1 read/s), then 10 ul of drug/well was added and read for 5 min (1 read/s). Fluorescence in each well was normalized to the average of the first 10 reads (i.e., baseline fluorescence). Then, the maximum-fold increase, which occurred within the first 60 s after drug addition, was determined and fold over baseline was plotted as a function of drug concentration. Data were normalized to % 5-HT stimulation and analyzed using “log(agonist) vs. response” in GraphPad Prism 9.0.

5-HT2CR = target: T3, 5-HT2CR (Homo sapiens, UniProt P28335); experiment: 5-HT2CR binding affinity (Ki), Table 8; details: read-out: 5-HT2CR Ki
T3 sequence (P28335 33-458): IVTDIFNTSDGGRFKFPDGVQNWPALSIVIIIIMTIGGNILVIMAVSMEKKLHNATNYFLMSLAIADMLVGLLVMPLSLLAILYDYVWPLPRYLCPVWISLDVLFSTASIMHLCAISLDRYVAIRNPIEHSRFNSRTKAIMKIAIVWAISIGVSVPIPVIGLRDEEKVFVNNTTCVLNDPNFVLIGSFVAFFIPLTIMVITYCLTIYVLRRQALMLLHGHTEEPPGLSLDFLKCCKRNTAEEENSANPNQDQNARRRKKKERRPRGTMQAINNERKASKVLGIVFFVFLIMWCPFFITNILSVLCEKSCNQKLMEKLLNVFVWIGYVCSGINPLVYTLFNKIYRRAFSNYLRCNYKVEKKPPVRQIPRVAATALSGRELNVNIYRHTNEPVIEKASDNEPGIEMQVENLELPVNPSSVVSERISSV

[5] = bracketed value below Ki, read-out: 5-HT2BR pKi ± S.E.M (converted)
[6] = bracketed value below EC50, read-out: 5-HT2AR pEC50 ± S.E.M (converted)
[7] = bracketed value below EC50, read-out: 5-HT2BR pEC50 ± S.E.M (converted)

T1 sequence (P41595 whole entry): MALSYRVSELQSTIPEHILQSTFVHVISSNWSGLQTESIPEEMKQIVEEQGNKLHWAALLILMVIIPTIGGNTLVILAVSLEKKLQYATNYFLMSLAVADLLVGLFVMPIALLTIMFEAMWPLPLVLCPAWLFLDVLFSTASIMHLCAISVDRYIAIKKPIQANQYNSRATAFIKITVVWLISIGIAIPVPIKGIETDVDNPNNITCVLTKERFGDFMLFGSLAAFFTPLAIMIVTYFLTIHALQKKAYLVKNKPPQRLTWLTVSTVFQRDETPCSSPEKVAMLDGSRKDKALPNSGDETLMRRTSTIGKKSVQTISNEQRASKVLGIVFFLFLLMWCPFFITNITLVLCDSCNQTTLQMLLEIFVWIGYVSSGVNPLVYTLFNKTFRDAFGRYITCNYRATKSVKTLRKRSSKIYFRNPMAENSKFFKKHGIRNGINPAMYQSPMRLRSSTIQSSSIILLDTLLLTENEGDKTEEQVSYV
T2 sequence (P28223 whole entry): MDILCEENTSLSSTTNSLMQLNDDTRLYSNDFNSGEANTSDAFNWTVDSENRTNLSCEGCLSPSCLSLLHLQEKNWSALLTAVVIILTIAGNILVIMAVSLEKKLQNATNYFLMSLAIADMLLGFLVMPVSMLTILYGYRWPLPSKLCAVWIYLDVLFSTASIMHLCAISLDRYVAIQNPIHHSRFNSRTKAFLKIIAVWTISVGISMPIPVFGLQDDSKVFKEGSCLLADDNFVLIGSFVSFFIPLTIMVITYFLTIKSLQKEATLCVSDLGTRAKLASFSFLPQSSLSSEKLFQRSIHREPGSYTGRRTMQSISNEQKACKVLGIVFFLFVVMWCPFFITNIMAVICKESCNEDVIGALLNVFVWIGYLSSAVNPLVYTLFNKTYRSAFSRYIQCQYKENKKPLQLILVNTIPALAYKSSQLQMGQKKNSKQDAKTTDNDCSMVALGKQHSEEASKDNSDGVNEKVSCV

Row | Compound | 5-HT2BR EC50 (5-HT2BR [1]) | Ki (5-HT2BR [2]; [5]) | Ki (5-HT2BR [2]; read-out: 5-HT2BR Ki) | Ki (5-HT2AR [3]; read-out: 5-HT2AR Ki) | EC50 (5-HT2AR [4]; [6]) | EC50 (5-HT2AR [4]; read-out: 5-HT2AR EC50) | 5-HT2AR Rmax ± S.E.M (5-HT2AR [4]) | Ki (5-HT2CR) | EC50 (5-HT2BR [1]; [7]) | 5-HT2BR Rmax ± S.E.M (5-HT2BR [1]) | EC50 (5-HT2BR [1]; read-out: 5-HT2BR EC50) | Ki (5-HT2AR [3]; bracketed value below Ki, read-out: 5-HT2AR pKi ± S.E.M (converted))
1 | CCCCCN1CC(c2cncc(Cl)c2)=C[C@@H](C)C1 [Compound 9, 5′-chloro-5-methyl-1-pentyl-1,2,5,6-tetrahydro-3,3′-bipyridine] | antagonist | 550 nM | 560 nM | > 10000 nM | 7760 nM | 7630 nM | (40.2% | > 10000 nM | – | – | – | –
2 | CCCCN1CC(c2cncc(Cl)c2)=C[C@@H](C)C1 [Compound 11, 1-butyl-5′-chloro-5-methyl-1,2,5,6-tetrahydro-3,3′-bipyridine] | antagonist | 372 nM | – | > 10000 nM | – | 4240 nM | (25.0% | > 10000 nM | – | – | – | –
3 | CCCCN1CC(c2cncc(Cl)c2)=C[C@H](C)C1 [Compound 12, 1-butyl-5′-chloro-5-methyl-1,2,5,6-tetrahydro-3,3′-bipyridine] | – | 7.08 nM | – | 4540 nM | 427 nM | – | (53.0% | > 10000 nM | 22.9 nM | (69.6% | – | –
4 | CCCCN1CC(c2cncc(C)c2)=C[C@@H](C)C1 [Compound 13, 1-Butyl-5,5′-dimethyl-1,2,5,6-tetrahydro-3,3′-bipyridine] | antagonist | – | 580 nM | > 10000 nM | – | > 10000 nM | – | > 10000 nM | – | – | – | –
5 | CCCN1CC(c2cncc(Cl)c2)=C[C@@H](C)C1 [Compound 15, 5′-Chloro-5-methyl-1-propyl-1,2,5,6-tetrahydro-3,3′-bipyridine] | – | 148 nM | – | > 10000 nM | – | 5000 nM | (42.1% | > 10000 nM | 123 nM | (50.9% | 130 nM | –
6 | C[C@@H]1C=C(c2cncc(Cl)c2)CN(CCC2CCCC2)C1 [Compound 19, 5′-chloro-1-(2-cyclopentylethyl)-5-methyl-1,2,5,6-tetrahydro-3,3′-bipyridine] | antagonist | – | 570 nM | > 10000 nM | – | 4310 nM | (34.9% | > 10000 nM | – | – | – | –
7 | C[C@H]1C=C(c2cncc(Cl)c2)CN(CCC2CCCC2)C1 [Compound 20, 5′-chloro-1-(2-cyclopentylethyl)-5-methyl-1,2,5,6-tetrahydro-3,3′-bipyridine] | – | 10.7 nM | – | 4360 nM | – | 540 nM | (49.1% | > 10000 nM | – | (66.2% | 85 nM | –
8 | CCCCN1CC(c2c[nH]c3ncccc23)=C[C@@H](C)C1 [Compound 21, 3-(1-butyl-5-methyl-1,2,5,6-tetrahydropyridin-3-yl)-1H-pyrrolo[2,3-b]pyridine] | antagonist | 4570 nM | 2920 nM | 2190 nM | – | 2160 nM | (12.8% | > 10000 nM | – | – | – | –
9 | CCCN1CC(c2c[nH]c3ncccc23)=C[C@@H](C)C1 [Compound 23, 3-(5-methyl-1-propyl-1,2,5,6-tetrahydropyridin-3-yl)-1H-pyrrolo[2,3-b]pyridine] | antagonist | 1660 nM | 1640 nM | 1220 nM | 245 nM | – | (65.6% | > 10000 nM | – | – | – | 1200 nM
10 | CCCN1CC(c2c[nH]c3ncccc23)=C[C@H](C)C1 [Compound 24, 3-(5-methyl-1-propyl-1,2,5,6-tetrahydropyridin-3-yl)-1H-pyrrolo[2,3-b]pyridine] | antagonist | – | 1670 nM | > 10000 nM | 871 nM | 860 nM | (14.8% | > 10000 nM | – | – | – | –
11 | C[C@H]1C=C(c2c[nH]c3ncccc23)CNC1 [compound 39, (S)-3-(5-methyl-1,2,5,6-tetrahydropyridin-3-yl)-1H-pyrrolo[2,3-b]pyridine] | – | – | 1810 nM | – | 513 nM | 520 nM | (14.0% | – | – | (26.8% | 1230 nM | –
